Measurements as given in patent US20230067064A1, “METHODS AND COMPOSITIONS FOR MODULATING SPLICING” (SkyHawk Therapeutics, Inc., priority 2019, published 2023).
Read-outs that look alike come from different tables or passages of the source.

Columns and labels:
[1] = test system: mHTT protein; assay: mHTT protein assay, 2B7-MW1 Mesoscale Discovery (MSD); assay type: cell-based, human; settings: GM04724 lymphoblast cells, 48 hours, 2B7-MW1 MSD; average; read-out: HTT Potency - Protein & Cytotoxicity: EC50 mHTT (average)
Method: Compounds are tested on GM04724 (CAG 70/20) Huntington's disease patient lymphoblast cells at doses ranging from 10 μM to 0.6 nM. 4,500 cells/well are seeded in 384 well plates. One plate replica is carried out for parallel viability testing by CellTiter Glo (CTG). Compounds are incubated for 48 hours. mHTT protein levels are assessed by the 2B7-MW1 assay via Mesoscale Discovery (MSD) as previously reported (Macdonald et al., 2014). The antibody pair is comprised of previously characterized monoclonals (2B7 and MW1) interrogating two regions for HTT conformation and biological properties: the N17 domain and the polyQ domain (Baldo et al., 2012; Ko et., 2001). 2B7-MW1 is dependent on subject/animal specific levels of HTT at the time of treatment. 2B7-MW1 is dependent on polyQ expansion (e.g., the higher the expansion the higher the signal) and on mHTT size (e.g., a similar polyQ will give higher signal with smaller HTT size). The viability readout is carried out by CTG according to the manufacturer's instructions. The results are show in Table A-10.

[2] = test system: cryptic exon within intron 49 of the Huntingtin (HTT) transcripts, GM04724 (CAG 70/20) Huntington's disease patient lymphoblasts; assay: Quantitative splicing assay (HTT); assay type: cell-based, human; settings: average
Method: GM04724 (CAG 70/20) Huntington's disease patient lymphoblasts (Coriell) are plated in 96-well v-bottom plates at 50,000 cells/well. Immediately after plating, cells are dosed with compound for 24 h at concentrations ranging from 2.5 uM to 0.15 nM (0.1% DMSO). Treated cells are lysed and cDNA synthesized using the Fast Advanced Cells-to-Ct kit (Thermofisher A35378) according to the manufacturer's instructions. 2 uL of each cDNA are used in qPCR reactions to confirm the compound-induced inclusion of a cryptic exon within intron 49 of the Huntingtin (HTT) transcripts. The qPCR reactions are prepared in 384-well plates in 10 uL volume, using TaqMan™ Fast Advanced Master Mix [ThermoFisher; 4444965] with primers and probes shown in the table below. Reactions are run in a Quant Studio 6 qPCR instrument with default settings.

[3] = test system: MDR1-MDCK cell monolayers; assay: MDCK-MDR1 permeability assay, blood-brain-barrier (BBB) penetration potential; assay type: in vitro ADME; settings: for General MDCK-MDR1: Efflux: efflux ratio
Method: (§1) Each determination is performed in duplicate. […] Analytical conditions are outlined below.
(§2) Papp=(dCr/dt)×Vr/(A×CA) (1)

[4] = test system: SMN protein; assay: SMN protein assay, Mesoscale Discovery (MSD); assay type: cell-based, human; settings: SMA patient fibroblasts (GM03813), 48 hours, average, read-out: SMN2 Potency - Protein: Protein FL EC50 (average)
Method: Compounds are tested on spinal muscular atrophy (SMA) patient fibroblasts (GM03813, Coriell) at doses ranging from 2.5 μM to 0.6 nM. 7000 cells/well are seeded in 96-well plates. Compounds are incubated for 48 hours and the cells were lysed with 100 μL of lysis buffer. 20 μL of lysate is used for SMN protein measurement by Mesoscale Discovery (MSD) assay developed by PharmOptima (Michigan). A standard curve prepared with SMN protein ranging from 1 μg/ml to 19.5 pg/ml is used in each MSD plate to calculate the absolute SMN protein amount in each sample.

[5] = test system: SMN FL and SMN Δ7 mRNA, spinal muscular atrophy (SMA) patient fibroblasts (GM03813); assay: Quantitative splicing assay (SMN); assay type: cell-based, human; settings: 24 h, average
Method: Spinal muscular atrophy (SMA) patient fibroblasts (GM03813, Coriell) are plated in 96-well plates at 50,000 cells/well. […] Treated cells are lysed and cDNA synthesized using the Fast Advanced Cells-to-Ct kit (Thermofisher A35378) according to the manufacturer's instructions. 2 μL of each cDNA are used in qPCR reactions. […] Reactions are run in a Quant Studio 6 qPCR instrument with default settings.

[6] = test system: MDR1; assay: MDCK-MDR1 permeability assay, blood-brain-barrier (BBB) penetration potential; assay type: in vitro ADME; settings: dog, MDCK-MDR1, pH 7.4
Method: as §1, §2

[7] = read-out: HTT Potency - Splicing: E49-50 EC50 (average)
[8] = read-out: HTT Potency - Splicing: E49b EC50 (average)
[9] = dog, MDCK-MDR1, 120 min, 5 μM, pH 7.4

Row | Structure (SMILES) | EC50 [1] [nM] | EC50 [2, 7] [nM] | EC50 [2, 8] [nM] | General MDCK-MDR1: % Recov A-B ([3]; A-B direction) [%] | General MDCK-MDR1: % Recov B-A ([3]; B-A direction) [%] | General MDCK-MDR1: Efflux [3] | EC50 [4] [nM] | IC50 ([5]; read-out: SMN2 Potency - Splicing: Splicing D7 IC50 (average)) [nM] | EC50 ([5]; read-out: SMN2 Potency - Splicing: Splicing FL EC50 (average)) [nM] | Papp A→B at 120 min, 5 μM [6] [×10⁻⁶ cm/s] | Papp B→A at 120 min, 5 μM [6] [×10⁻⁶ cm/s] | efflux ratio at 120 min, 5 μM [6] | General MDCK-MDR1: % Recov A-B [3, 9] [%] | General MDCK-MDR1: % Recov B-A [3, 9] [%]
1 | CC12CCC(CC(Oc3ccc(-c4ccc(-c5cn[nH]c5)cc4O)nn3)C1)N2 (single isomer, unassigned; ent2) [309-Ent2] | 0.01 to 15 | 0.01 to 15 | 0.01 to 15 | 91 | 86 | 50 |  |  |  |  |  |  |  | 
2 | COc1cc(-c2ccc(-c3ccc(N(C)C4CC5CCC(C)(C4)N5)nn3)c(O)c2)cnn1 (single isomer, unassigned; ent2) [310-Ent2] | 0.01 to 15 |  |  | 89 | 80 | 133 | 16 to 50 |  |  |  |  |  |  | 
3 | COc1cc(-c2ccc(-c3ccc(N(C)C4CC5CCCC(C)(C4)N5)nn3)c(O)c2)cnn1 (single isomer, unassigned; ent2) [311-Ent2] | 0.01 to 15 |  |  | 84 | 83 | 137 | 16 to 50 |  |  |  |  |  |  | 
4 | COCC12CCC(CC(N(C)c3ccc(-c4cc(F)c(-n5ccnc5)cc4O)nn3)C1)N2 (single isomer, unassigned; ent2) [315-Ent2] | 0.01 to 15 | 0.01 to 15 | 0.01 to 15 | 104 | 107 | 117 |  |  |  |  |  |  |  | 
5 | COCC12CCCC(CC(Oc3ccc(-c4ccc(-c5cnn(C)c5)cc4O)nn3)C1)N2 (single isomer, unassigned; ent2) [316-Ent2] | 16 to 50 | 16 to 50 | 16 to 50 | 77 | 106 | 40 | 0.01 to 15 | 16 to 50 | 51 to 100 |  |  |  |  | 
6 | CN(c1ccc(-c2ccc(-c3cnn(C)c3)cc2O)nn1)C1CC2(C)CCC(N2)C1F (single isomer, unassigned; ent2) [318-Ent2] | 0.01 to 15 |  |  |  |  |  | 0.01 to 15 |  |  |  |  |  |  | 
7 | CN1C2CC[C@@H]1C[C@@H](Oc1ccc(-c3ccc(-n4ccnc4)cc3O)nn1)C2 [compound 301] |  |  |  |  |  |  | 501 to 10000 |  |  | 2.34 | 48.2 | 21 | 83 | 91
8 | CN1[C@@H]2CCC[C@H]1C[C@H](Oc1ccc(-c3ccc(-n4ccnc4)cc3O)nn1)C2 [compound 302] | 501 to 10000 |  |  |  |  |  | 51 to 100 |  |  | 3.09 | 55.8 | 18 | 90 | 110
9 | CN1[C@@H]2CCC[C@H]1C[C@H](Oc1ccc(-c3ccc(-c4cn[nH]c4)cc3O)nn1)C2 [compound 305] | 51 to 100 |  |  |  |  |  | 501 to 10000 |  |  |  |  |  |  | 
10 | CN1[C@@H]2CC[C@H]1C[C@H](Oc1ccc(-c3ccc(-c4cn[nH]c4)cc3O)nn1)C2 [compound 306] | 101 to 500 |  |  |  |  |  | 501 to 10000 |  |  | 1.19 | 55.4 | 47 | 95 | 102
